From patent US8758816B2, “Compositions comprising azelastine and methods of use thereof” (priority 2004, dated 2014)

Columns and labels:
[1] = test system: patients with seasonal allergic rhinitis (SAR); assay: MP 428 study: Adult Rhinoconjunctivitis Quality of Life Questionnaire outcomes, change from baseline; format: in vivo, human; conditions: Day 14/ET; Intent-to-Treat Population
[2] = test system: patients with seasonal allergic rhinitis (SAR); assay: MP 428 study: 14.3.5 Vital Sign Assessments, Safety Population

With `CCC(=O)O[C@]1(C(=O)SCF)[C@H](C)C[C@H]2[C@@H]3C[C@H](F)C4=CC(=O)C=C[C@]4(C)[C@@]3(F)[C@@H](O)C[C@@]21C` [Fluticasone, fluticasone propionate] the “RQLQ Change From Baseline in Activity, LS Mean” value [1] was −1.52, the “RQLQ Change From Baseline in Activity, Mean” value [1] was −1.50 and the “RQLQ Change From Baseline in Activity, Median” value [1] was −1.33. For the same molecule, the “RQLQ Change From Baseline in Emotional, LS Mean” value [1] was −1.42, the “RQLQ Change From Baseline in Emotional, Mean” value [1] was −1.50 and the “RQLQ Change From Baseline in Emotional, Median” value [1] was −1.25. For the same molecule, the “RQLQ Change From Baseline in Eye Symptoms, LS Mean” value [1] was −1.51, the “RQLQ Change From Baseline in Eye Symptoms, Mean” value [1] was −1.53 and the “RQLQ Change From Baseline in Eye Symptoms, Median” value [1] was −1.75. The “RQLQ Change From Baseline in Nasal Symptoms, LS Mean” value [1] was −1.72, the “RQLQ Change From Baseline in Nasal Symptoms, Mean” value [1] was −1.74 and the “RQLQ Change From Baseline in Nasal Symptoms, Median” value [1] was −1.50. The “RQLQ Change From Baseline in Non-nose/eye Symptoms, LS Mean” value [1] was −1.19, the “RQLQ Change From Baseline in Non-nose/eye Symptoms, Mean” value [1] was −1.23 and the “RQLQ Change From Baseline in Non-nose/eye Symptoms, Median” value [1] was −1.14. The “RQLQ Change From Baseline in Overall Score, LS Mean” value [1] was −1.47, the “RQLQ Change From Baseline in Overall Score, Mean” value [1] was −1.49 and the “RQLQ Change From Baseline in Overall Score, Median” value [1] was −1.37. The “RQLQ Change From Baseline in Practical Problems, LS Mean” value [1] was −1.74, the “RQLQ Change From Baseline in Practical Problems, Mean” value [1] was −1.76 and the “RQLQ Change From Baseline in Practical Problems, Median” value [1] was −1.67. For the same molecule, the “RQLQ Change From Baseline in Sleep, LS Mean” value [1] was −1.23, the “RQLQ Change From Baseline in Sleep, Mean” value [1] was −1.26 and the “RQLQ Change From Baseline in Sleep, Median” value [1] was −1.33. The “Diastolic Blood Pressure, Actual, Mean” value ([2]; Day 1, Safety Population) was 74.0 mmHg, the “Diastolic Blood Pressure, Actual, Median” value ([2]; Day 1, Safety Population) was 76.0 mmHg and the “Diastolic Blood Pressure, Actual, Min-Max” value ([2]; Day 1, Safety Population) was 41-89 mmHg. The “Pulse Rate, Actual, Mean” value ([2]; Day 1, Safety Population) was 75.0 bpm, the “Pulse Rate, Actual, Median” value ([2]; Day 1, Safety Population) was 75.0 bpm and the “Pulse Rate, Actual, Min-Max” value ([2]; Day 1, Safety Population) was 57-92 bpm. For the same molecule, the “Respiration, Actual, Mean” value ([2]; Day 1, Safety Population) was 15.8 bpm, the “Respiration, Actual, Median” value ([2]; Day 1, Safety Population) was 16.0 bpm and the “Respiration, Actual, Min-Max” value ([2]; Day 1, Safety Population) was 12-18 bpm. For the same molecule, the “Systolic Blood Pressure, Actual, Mean” value ([2]; Day 1, Safety Population) was 117.9 mmHg, the “Systolic Blood Pressure, Actual, Median” value ([2]; Day 1, Safety Population) was 118.5 mmHg and the “Systolic Blood Pressure, Actual, Min-Max” value ([2]; Day 1, Safety Population) was 93-142 mmHg. The “Temperature, Actual, Mean” value ([2]; Day 1, Safety Population) was 97.89 ° F, the “Temperature, Actual, Median” value ([2]; Day 1, Safety Population) was 97.85 ° F and the “Temperature, Actual, Min-Max” value ([2]; Day 1, Safety Population) was 97.0-99.8 ° F. For the same molecule, the “Diastolic Blood Pressure, Actual, Mean” value ([2]; Day 7, Safety Population) was 72.7 mmHg, the “Diastolic Blood Pressure, Actual, Median” value ([2]; Day 7, Safety Population) was 74.0 mmHg and the “Diastolic Blood Pressure, Actual, Min-Max” value ([2]; Day 7, Safety Population) was 58-86 mmHg. For the same molecule, the “Diastolic Blood Pressure, Change from baseline, Mean” value ([2]; Day 7, Safety Population) was −1.5 mmHg, the “Diastolic Blood Pressure, Change from baseline, Median” value ([2]; Day 7, Safety Population) was −1.5 mmHg and the “Diastolic Blood Pressure, Change from baseline, Min-Max” value ([2]; Day 7, Safety Population) was −15-19 mmHg. For the same molecule, the “Pulse Rate, Actual, Mean” value ([2]; Day 7, Safety Population) was 75.5 bpm, the “Pulse Rate, Actual, Median” value ([2]; Day 7, Safety Population) was 74.0 bpm and the “Pulse Rate, Actual, Min-Max” value ([2]; Day 7, Safety Population) was 52-102 bpm. The “Pulse Rate, Change from baseline, Mean” value ([2]; Day 7, Safety Population) was 0.5 bpm, the “Pulse Rate, Change from baseline, Median” value ([2]; Day 7, Safety Population) was −2.0 bpm and the “Pulse Rate, Change from baseline, Min-Max” value ([2]; Day 7, Safety Population) was −29-38 bpm. The “Respiration, Actual, Mean” value ([2]; Day 7, Safety Population) was 16.0 bpm, the “Respiration, Actual, Median” value ([2]; Day 7, Safety Population) was 16.0 bpm and the “Respiration, Actual, Min-Max” value ([2]; Day 7, Safety Population) was 12-20 bpm. For the same molecule, the “Respiration, Change from baseline, Mean” value ([2]; Day 7, Safety Population) was 0.2 bpm, the “Respiration, Change from baseline, Median” value ([2]; Day 7, Safety Population) was 0.0 bpm and the “Respiration, Change from baseline, Min-Max” value ([2]; Day 7, Safety Population) was −4-4 bpm. The “Systolic Blood Pressure, Actual, Mean” value ([2]; Day 7, Safety Population) was 116.7 mmHg, the “Systolic Blood Pressure, Actual, Median” value ([2]; Day 7, Safety Population) was 116.0 mmHg and the “Systolic Blood Pressure, Actual, Min-Max” value ([2]; Day 7, Safety Population) was 95-142 mmHg. For the same molecule, the “Systolic Blood Pressure, Change from baseline, Mean” value ([2]; Day 7, Safety Population) was −1.4 mmHg, the “Systolic Blood Pressure, Change from baseline, Median” value ([2]; Day 7, Safety Population) was −0.5 mmHg and the “Systolic Blood Pressure, Change from baseline, Min-Max” value ([2]; Day 7, Safety Population) was −21-15 mmHg. The “Temperature, Actual, Mean” value ([2]; Day 7, Safety Population) was 97.90 ° F, the “Temperature, Actual, Median” value ([2]; Day 7, Safety Population) was 97.95 ° F and the “Temperature, Actual, Min-Max” value ([2]; Day 7, Safety Population) was 96.0-98.9 ° F. The “Temperature, Change from baseline, Mean” value ([2]; Day 7, Safety Population) was −0.03 ° F, the “Temperature, Change from baseline, Median” value ([2]; Day 7, Safety Population) was 0.00 ° F and the “Temperature, Change from baseline, Min-Max” value ([2]; Day 7, Safety Population) was −1.8-1.8 ° F. For the same molecule, the “Body Weight for Patients of Age 12 to 17, Actual, Mean” value ([2]; Day 14, Patients of Age 12 to 17) was 135.8 lb.
